The values that follow come from PubChem BioAssay AID330 (DTP/NCI, 2004).

The test system of the assay is P388 leukemia ip, CD2F1 mice, survival T/C. Description: NCI In Vivo Anticancer Drug Screen. Data for tumor model P388 Leukemia (intraperitoneal) in CD2F1 (CDF1) mice. Conditions: endpoint: median survival time, higher = longer survival. The procedure, abridged:
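Mice carrying the transplanted tumor received test compound or vehicle. Survival was recorded in each group, and the value is the treated-group measurement divided by that of the vehicle-treated control group.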

The mark [1] stands for this setting: dose: 100.0 mg/kg/injection, schedule: Q04DX002 (ip), vehicle: saline with Tween-80.
Setting [2] is: dose: 200.0 mg/kg/injection, schedule: Q04DX002 (ip), vehicle: saline with Tween-80.
Where [3] appears, read: dose: 400.0 mg/kg/injection, schedule: Q04DX002 (ip), vehicle: saline with Tween-80.
Where [4] appears, read: dose: 50.0 mg/kg/injection, schedule: Q01DX009 (ip), vehicle: saline.
[5] abbreviates: dose: 100.0 mg/kg/injection, schedule: Q01DX009 (ip), vehicle: saline.
[6] abbreviates: dose: 200.0 mg/kg/injection, schedule: Q01DX009 (ip), vehicle: saline.
Setting [7] is: dose: 60.0 mg/kg/injection, schedule: Q01DX005 (ip), vehicle: Klucel (hydroxypropylcellulose) (HPC).
The mark [8] stands for this setting: dose: 50.0 mg/kg/injection, schedule: Q01DX005 (ip), vehicle: Klucel (hydroxypropylcellulose) (HPC).
Setting [9] is: dose: 100.0 mg/kg/injection, schedule: Q01DX005 (ip), vehicle: Klucel (hydroxypropylcellulose) (HPC).
Where [10] appears, read: dose: 200.0 mg/kg/injection, schedule: Q01DX005 (ip), vehicle: Klucel (hydroxypropylcellulose) (HPC).
The mark [11] stands for this setting: dose: 120.0 mg/kg/injection, schedule: Q01DX005 (ip), vehicle: Klucel (hydroxypropylcellulose) (HPC).
The mark [12] stands for this setting: dose: 50.0 mg/kg/injection, schedule: Q01DX005 (ip), vehicle: saline with Tween-80.
[13] abbreviates: dose: 100.0 mg/kg/injection, schedule: Q01DX005 (ip), vehicle: saline with Tween-80.
[14] abbreviates: dose: 200.0 mg/kg/injection, schedule: Q01DX005 (ip), vehicle: saline with Tween-80.

SMILES strings stand for the structures. Values joined by “and” are separate entries in the source; they are usually repeats but may differ in a detail not shown here. Equal values may be shown once. Inconclusive results and toxic doses are left out.

Consider `CSCCCNC(=O)c1csc(-c2csc(CCNC(C)=O)n2)n1`, for which the T/C runs as follows: under setting [1], 98 % of control; under setting [2], 95 % of control; under setting [3], 97 % of control.

As for `C=C[C@H]1[C@H](OC2OC(CO)C(O)C(O)C2O)OC=C2C(=O)OCC[C@H]21` (stereo partly specified), the T/C is 95 % of control (dose: 0.75 mg/kg/injection, schedule: Q01DX005 (ip), vehicle: water); 95 % of control (dose: 1.5 mg/kg/injection, schedule: Q01DX005 (ip), vehicle: water); 93 % of control (dose: 3.0 mg/kg/injection, schedule: Q01DX005 (ip), vehicle: water); 93 % of control (dose: 6.0 mg/kg/injection, schedule: Q01DX005 (ip), vehicle: water).

For `Cc1ccc2c(c1)nc1sc(C)cc(=O)n12`, the T/C is, setting by setting: (dose: 50.0 mg/kg/injection, schedule: Q01DX009 (ip), vehicle: Klucel (hydroxypropylcellulose) (HPC)) 97 % of control; (dose: 100.0 mg/kg/injection, schedule: Q01DX009 (ip), vehicle: Klucel (hydroxypropylcellulose) (HPC)) 95 % of control; (dose: 200.0 mg/kg/injection, schedule: Q01DX009 (ip), vehicle: Klucel (hydroxypropylcellulose) (HPC)) 92 % of control.

As for `N#Cc1cccnc1.NCCNCCN.[Br-].[Pt+4]`, the T/C is 100 % of control (dose: 12.5 mg/kg/injection, schedule: Q01DX009 (ip), vehicle: saline); 96 % of control (dose: 25.0 mg/kg/injection, schedule: Q01DX009 (ip), vehicle: saline); 105 % of control under setting [4]; 103 % of control under setting [5]; 102 % of control under setting [6].

With `COC(=O)c1cc(=O)n(-c2ccccc2OC)c(SC)n1`, the T/C by setting is: (dose: 25.0 mg/kg/injection, schedule: Q04DX002 (ip), vehicle: Klucel (hydroxypropylcellulose) (HPC)) 110 % of control; (dose: 50.0 mg/kg/injection, schedule: Q04DX002 (ip), vehicle: Klucel (hydroxypropylcellulose) (HPC)) 100 % of control; (dose: 100.0 mg/kg/injection, schedule: Q04DX002 (ip), vehicle: Klucel (hydroxypropylcellulose) (HPC)) 103 % of control.

With `O=C(OCC(O)CO)c1c(Cl)c(Cl)c(Cl)c(Cl)c1-c1c2cc(I)c(=O)c(I)c-2oc2c(I)c(O)c(I)cc12` (stereo unspecified), the T/C (dose: 60.0 mg/kg/injection, schedule: Q01DX005 (ip), vehicle: saline) was 94 % of control; the T/C (dose: 120.0 mg/kg/injection, schedule: Q01DX005 (ip), vehicle: saline) was 100 % of control; the T/C (dose: 240.0 mg/kg/injection, schedule: Q01DX005 (ip), vehicle: saline) is 102 % of control.

As for `O=C(Nc1cccc(Cl)c1Cl)SCCSC(=O)Nc1cccc(Cl)c1Cl`, the T/C (dose: 50.0 mg/kg/injection, schedule: Q01DX009 (ip), vehicle: gum acacia) was 92 % of control; the T/C (dose: 100.0 mg/kg/injection, schedule: Q01DX009 (ip), vehicle: gum acacia) is 100 % of control; the T/C (dose: 200.0 mg/kg/injection, schedule: Q01DX009 (ip), vehicle: gum acacia) was 96 % of control.

Regarding `Cn1cc(N=P(c2ccccc2)(c2ccccc2)c2ccccc2)c(=O)n(C)c1=O`, the T/C is 114 % of control (dose: 15.0 mg/kg/injection, schedule: Q01DX005 (ip), vehicle: Klucel (hydroxypropylcellulose) (HPC)); 105 % of control (dose: 30.0 mg/kg/injection, schedule: Q01DX005 (ip), vehicle: Klucel (hydroxypropylcellulose) (HPC)); 107 % of control under setting [7].

As for `CC12CC(=O)C3C(CCC4CC(OS(=O)(=O)O)CCC43C)C1CC1OC(=O)C=C12` (stereo unspecified), the T/C under setting [8] was 98 % of control, the T/C under setting [9] is 100 % of control and the T/C under setting [10] was 94 % of control.

Regarding `N#CC1=C(N)OC(C2CC2)=C(C#N)C1c1ccco1` (stereo unspecified), the T/C under setting [7] was 88 % of control and the T/C under setting [11] is 88 % of control.

On to `CCN(CC)CCNc1ccc(COC(=O)NC)c2sc3ccccc3c(=O)c12`, for which the T/C was 116 % of control (dose: 1.56 mg/kg/injection, schedule: Q01DX009 (ip), vehicle: saline with Tween-80); 122 % of control (dose: 3.12 mg/kg/injection, schedule: Q01DX009 (ip), vehicle: saline with Tween-80); 119 % of control (dose: 6.25 mg/kg/injection, schedule: Q01DX009 (ip), vehicle: saline with Tween-80).

In the case of `Cc1nc(=S)c2ncn(-c3ccccc3)c2[nH]1`, the T/C reads like this: under setting [7], 95 % of control; under setting [11], 94 % of control.

Turning to `O=C1c2ccccc2C(=O)N1c1ccc(C(F)(F)F)cc1[N+](=O)[O-]`, the T/C was 91 % of control (dose: 100.0 mg/kg/injection, schedule: Q04DX003 (ip), vehicle: saline); 100 % of control (dose: 200.0 mg/kg/injection, schedule: Q04DX003 (ip), vehicle: saline); 93 % of control (dose: 400.0 mg/kg/injection, schedule: Q04DX003 (ip), vehicle: saline).

As for `O=C1C=C(N2CCN(CCO)CC2)C(=O)c2c(N3CCN(CCO)CC3)cc(N3CCN(CCO)CC3)nc21`, the T/C reads like this: (dose: 50.0 mg/kg/injection, schedule: Q01DX005 (ip), vehicle: saline) 97 % of control; (dose: 100.0 mg/kg/injection, schedule: Q01DX005 (ip), vehicle: saline) 93 % of control; (dose: 200.0 mg/kg/injection, schedule: Q01DX005 (ip), vehicle: saline) 93 % of control.

On to `CCCC(N)P(=O)(O)O` (stereo unspecified), for which the T/C is 99 % of control under setting [4]; 93 % of control under setting [5]; 96 % of control under setting [6]; 93 % of control (dose: 400.0 mg/kg/injection, schedule: Q01DX009 (ip), vehicle: saline).

`CN1CCC(Br)(C(=O)c2ccccc2)CC1`: the T/C (dose: 37.5 mg/kg/injection, schedule: Q01DX009 (ip), vehicle: saline with Tween-80) is 100 % of control; the T/C (dose: 75.0 mg/kg/injection, schedule: Q01DX009 (ip), vehicle: saline with Tween-80) is 100 % of control; the T/C (dose: 150.0 mg/kg/injection, schedule: Q01DX009 (ip), vehicle: saline with Tween-80) is 104 % of control.

Turning to `Nc1c(S(=O)(=O)O)cc(Br)c2c1C(=O)c1ccccc1C2=O`, the T/C under setting [12] is 98 % of control, the T/C under setting [13] is 98 % of control and the T/C under setting [14] is 93 % of control.

As for `CCOC(=O)CC1(O)CS/C(=C(\C#N)C(=O)OCC)S1` (stereo unspecified), the T/C under setting [12] is 102 % of control, the T/C under setting [13] was 102 % of control and the T/C under setting [14] was 98 % of control.

Turning to `CSC(C)(C(=N)C#N)N(C)C` (stereo unspecified), the T/C by setting is: (dose: 12.5 mg/kg/injection, schedule: Q04DX003 (ip), vehicle: saline) 103 % of control; (dose: 25.0 mg/kg/injection, schedule: Q04DX003 (ip), vehicle: saline) 100 % of control; (dose: 50.0 mg/kg/injection, schedule: Q04DX003 (ip), vehicle: saline) 104 % of control.

Regarding `[Cl-].[Cl-].[Co+3].[NH-]CC[NH-].[NH-]CC[NH-].[O-][Cl+3]([O-])([O-])O`, the T/C (dose: 25.0 mg/kg/injection, schedule: Q01DX009 (ip), vehicle: saline with Tween-80) was 102 % of control; the T/C (dose: 50.0 mg/kg/injection, schedule: Q01DX009 (ip), vehicle: saline with Tween-80) was 105 % of control and 117 % of control; the T/C (dose: 100.0 mg/kg/injection, schedule: Q01DX009 (ip), vehicle: saline with Tween-80) is 111 % of control and 123 % of control.

For `COc1cccc2c1C(=O)c1c(O)c3c(c(O)c1C2=O)C[C@@](O)(C(=O)COC(C)=O)C[C@@H]3OC1CC(N)C(O)C(C)O1` (stereo partly specified), the T/C by setting is: (dose: 0.08 mg/kg/injection, schedule: Q01DX009 (ip), vehicle: saline sonified) 200 % of control; (dose: 1.5 mg/kg/injection, schedule: Q01DX009 (ip), vehicle: saline sonified) 150 % of control.

`O=c1c(N=Nc2ccccc2Cl)c(O)n(-c2ccc(Br)cc2)c(=S)n1-c1ccccc1`: the T/C is, setting by setting: under setting [1], 96 % of control; under setting [2], 90 % of control; under setting [3], 90 % of control.

For `Cc1nc2sc3c(c2c2nncn12)CCCC3`, the T/C was 103 % of control under setting [8], 97 % of control under setting [9] and 97 % of control under setting [10].

As for `O=S(=O)(c1cnccc1N1CCN(CCO)CC1)N1CCCC1`, the T/C under setting [4] was 106 % of control, the T/C under setting [5] is 101 % of control and the T/C under setting [6] was 87 % of control.

As for `O=C1c2ccccc2CN(c2ccccc2)C(=Nc2ccccc2)N1c1ccccc1`, the T/C reads like this: under setting [12], 95 % of control; under setting [13], 93 % of control; under setting [14], 95 % of control.
